Laboratory results: US20060100431A1, “Biologically active compounds” (Amura Therapeutics Limited, priority 2002, published 2006)

Key:
[1] = molecular target: Wild-type cruzipain (Trypanosoma cruzi, UniProt P25779); experiment: Trypanosoma cruzi cruzipain peptidase activity assay (Ki); format: biochemical; conditions: read-out: Ki, inhibitors of cruzain and cruzipains
Procedure, shortened: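 Native cruzipain from T. cruzi Dm28 epimastigotes, 2.5 nM, in 100 mM sodium phosphate pH 6.75 with 1 mM EDTA and 10 mM L-cysteine, 25 °C, DMSO <1%. Rates taken from continuous fluorogenic substrate read; Ki by regression assuming reversible pure-competitive inhibition.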

[2] = molecular target: T1, CPB2.8ΔCTE (Leishmania mexicana, UniProt P36400); experiment: Leishmania mexicana cysteine protease B (CPB) peptidase activity assay (Ki); format: biochemical; conditions: Ki, inhibitors of Leismania mexicana CPB protease
T1 construct: Wild-type recombinant CPB without the C-terminal extention (i.e. CPB2.8ΔCTE); Dr. Jeremy Mottram (Wellcome Centre for Molecular Parasitology, University of Glasgow)
Description: Unless otherwise stated, all general chemicals and biochemicals were purchased from either the Sigma Chemical Company, Poole, Dorset, U.K or from Fisher Scientific UK, Loughborough, Leicestershire, U.K. Absorbance assays were carried out in flat-bottomed 96-well plates (Spectra; Greiner Bio-One Ltd., Stonehouse, Gloucestershire, U.K.) using a SpectraMax PLUS384 plate reader (Molecular Devices, Crawley, U.K.). Fluorescence high throughput assays were carried out in either 384-well microtitre plates (Corning Costar 3705 plates, Fisher Scientific) or 96-well ‘U’ bottomed Microfluor W1 microtitre plates (Thermo Labsystems, Ashford, Middlesex, U.K.). Fluorescence assays were monitored using a SpectraMax Gemini fluorescence plate reader (Molecular Devices). For substrates employing either a 7-amino-4-methylcoumarin (AMC) or a 7-amino-4-trifluoromethylcoumarin (AFC) fluorophore, assays were monitored at an excitation wavelength of 365 nm and an emission wavelength of 450 nm and the fluorescence plate reader calibrated with AMC. For substrates employing a 3-amino-benzoyl (Abz) fluorophore, assays were monitored at an excitation wavelength of 310 nm and an emission wavelength of 445 nm; the fluorescence plate reader calibrated with 3-amino-benzamide (Fluka). Unless otherwise indicated, all the peptidase substrates were purchased from Bachem UK, St Helens, Merseyside, UK. Substrates utilizing fluorescence resonance energy transfer methodology (i.e. FRET-based substrates) were synthesized at Incenta Limited using published methods (Atherton & Sheppard, Solid Phase Peptide Synthesis, IRL Press, Oxford, U.K, 1989) and employed Abz (2-aminobenzoyl) as the fluorescence donor and 3-nitro-tyrosine [Tyr(NO2)] as the fluorescence quencher (Meldal, M. and Breddam, K., Anal. Biochem, 195, 141-147, 1991). Hydroxyethylpiperazine ethanesulfonate (HEPES), tris-hydroxylmethyl aminomethane (tris) base, bis-tris-propane and all the biological detergents (e.g. CHAPS, zwittergents, etc.) were purchased from CN Biosciences UK, Beeston, Nottinghamshire, U.K. Glycerol was purchased from Amersham Pharmacia Biotech, Little Chalfont, Buckinghamshire, U.K. Stock solutions of substrate or inhibitor were made up to 10 mM in 100% dimethylsulfoxide (DMSO) (Rathburns, Glasgow, U.K.) and diluted as appropriately required. In all cases the DMSO concentration in the assays was maintained at less than 1% (vol./vol.).
Assay protocols were based on literature precedent (Table 4; Barrett, A. J., Rawlings, N. D. and Woessner, J. F., 1998, Handbook of Proteolytic Enzymes, Academic Press, London and references therein) and modified as required to suit local assay protocols. Enzyme was added as required to initiate the reaction and the activity, as judged by the change in fluorescence upon conversion of substrate to product, was monitored over time. All assays were carried out at 25±1° C.
Wild-type recombinant CPB without the C-terminal extention (i.e. CPB2.8ΔCTE; Sanderson, S. J., et. al., Biochem. J., 347, 383-388, 2000) was obtained from Dr. Jeremy Mottram (Wellcome Centre for Molecular Parasitology, The Anderson College, University of Glasgow, Glasgow, U.K.). Activity assays were carried out in 100 mM sodium acetate; pH 5.5 containing 1 mM EDTA; 200 mM NaCl and 10 mM DTT (Alves, L. C., et. al., Mol. Biochem. Parasitol, 116, 1-9, 2001) using 0.25 nM enzyme. […] The rate of conversion of substrate to product was derived from the slope of the increase in fluorescence monitored continuously over time.
The apparent inhibition constant (Ki) for each compound was determined on the basis that inhibition was reversible and occurred by a pure-competitive mechanism. The Ki values were calculated, from the dependence of enzyme activity as a function of inhibitor concentration, by direct regression analysis (Prism v 3.02) using Equation 2 (Cornish-Bowden, A., 1995.). [formula]

Chain of Wild-type cruzipain (P25779 whole entry): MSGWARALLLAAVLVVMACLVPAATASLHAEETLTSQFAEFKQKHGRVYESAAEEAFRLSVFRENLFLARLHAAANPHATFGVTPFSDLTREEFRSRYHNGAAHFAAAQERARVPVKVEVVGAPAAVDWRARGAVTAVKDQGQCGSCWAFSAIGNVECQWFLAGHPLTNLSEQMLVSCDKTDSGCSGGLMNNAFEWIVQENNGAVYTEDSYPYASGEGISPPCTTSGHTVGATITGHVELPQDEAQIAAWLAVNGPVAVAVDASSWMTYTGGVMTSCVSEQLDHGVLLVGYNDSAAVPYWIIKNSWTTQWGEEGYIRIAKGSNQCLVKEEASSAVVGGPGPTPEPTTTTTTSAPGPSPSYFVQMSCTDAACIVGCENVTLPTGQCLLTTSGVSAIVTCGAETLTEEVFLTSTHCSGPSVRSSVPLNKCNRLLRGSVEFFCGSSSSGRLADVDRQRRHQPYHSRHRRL
T1 sequence (P36400 126-343, stated change not applied): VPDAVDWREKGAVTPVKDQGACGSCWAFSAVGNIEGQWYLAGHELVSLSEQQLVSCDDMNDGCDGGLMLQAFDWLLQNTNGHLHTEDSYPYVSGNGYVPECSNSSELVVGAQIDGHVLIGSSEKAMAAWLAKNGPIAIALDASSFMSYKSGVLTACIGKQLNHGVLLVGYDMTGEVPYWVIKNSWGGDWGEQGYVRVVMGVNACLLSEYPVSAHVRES

Structure (SMILES) | Ki [1] | Ki [2]
CC(C)C[C@H](NC(=O)c1ccc(C(C)(C)C)cc1)C(=O)N1CC[C@@H]2[C@H]1C(=O)CN2C(=O)c1cccc(Oc2ccccc2)c1 [Example 24, (3aR,6aS)-4-tert-Butyl-N-{(1S)-3-methyl-1-[6-oxo-4-(3-phenoxy-benzoyl)-hexahydro-pyrrolo[3,2-b]pyrrole-1-carbonyl]-butyl}-benzamide] | < 5 µM | < 5 µM
CC(C)C[C@H](NC(=O)c1ccc(N(C)C)cc1)C(=O)N1CC[C@@H]2[C@H]1C(=O)CN2C(=O)c1ccc(Oc2ccccc2)cc1 [Example 56, (3aR,6aS)-4-Dimethylamino-N-{(1S)-3-methyl-1-[6-oxo-4-(4-phenoxy-benzoyl)-hexahydro-pyrrolo[3,2-b]pyrrole-1-carbonyl]-butyl}-benzamide] | < 5 µM | < 5 µM
COC1CCCC(C(=O)N2CC(=O)[C@@H]3[C@H]2CCN3C(=O)[C@H](CC(C)C)NC(=O)c2ccc(N(C)C)cc2)C1 (stereo partly drawn) [Example 139, (3aR,6aS)-4-Dimethylamino-N-{(1S)-1-[4-(3-methoxy-cyclohexanecarbonyl)-6-oxo-hexahydro-pyrrolo[3,2-b]pyrrole-1-carbonyl]-3-methyl-butyl}-benzamide] | < 5 µM | < 5 µM
CC(C)C[C@H](NC(=O)c1ccc(N(C)C)cc1)C(=O)N1CC[C@@H]2[C@H]1C(=O)CN2C(=O)c1cc2ccccc2s1 [Example 100, (3aR,6aS)-N-{(1S)-1-[4-(Benzo[b]thiophene-2-carbonyl)-6-oxo-hexahydro-pyrrolo[3,2-b]pyrrole-1-carbonyl)-3-methyl-butyl}-4-dimethylamino-benzamide] | < 5 µM | < 5 µM
CC(C)C[C@H](NC(=O)c1ccc(N(C)C)cc1)C(=O)N1CC[C@@H]2[C@H]1C(=O)CN2C(=O)c1ccncc1 [Example 82, (3aR,6aS)-4-Dimethylamino-N-{(1S)-3-methyl-1-[6-oxo-4-(pyridinecarbonyl)-hexahydro-pyrrolo[3,2-b]pyrrole-1-carbonyl]-butyl}-benzamide] | < 5 µM | < 5 µM
COc1ccc(C(=O)N2CC(=O)[C@@H]3[C@H]2CCN3C(=O)[C@H](CC(C)C)NC(=O)c2ccc(N(C)C)cc2)cc1 [Example 66, (3aR,6aS)-4-Dimethylamino-N-{(1S)-1-[4-(4-methoxy-benzoyl)-6-oxo-hexahydro-pyrrolo[3,2-b]pyrrole-1-carbonyl]-3-methyl-butyl}-benzamide] | < 5 µM | < 5 µM
CC(=O)N[C@@H](CC(C)C)C(=O)N1CC(=O)[C@@H]2[C@H]1CCN2C(=O)[C@H](Cc1ccc(O)cc1)NC(=O)c1cccc(Br)c1 [Example 345, (3aR,6aS)-N-[(1S)-2-[4-((2S)-2-Acetylamino-4-methyl-pentanoyl)-6-oxo-hexahydro-pyrrolo[3,2-b]pyrrol-1-yl]-1-(4-hydroxy-benzyl)-2-oxo-ethyl]-3-bromo-benzamide] | < 5 µM | < 5 µM
NCc1ccc(C(=O)N[C@@H](Cc2ccc(O)cc2)C(=O)N2CC[C@@H]3[C@H]2C(=O)CN3C(=O)c2ccccc2)cc1 [Example 318] | < 5 µM | < 5 µM
CN[C@@H](CC(C)C)C(=O)N1CC(=O)[C@@H]2[C@H]1CCN2C(=O)[C@H](CC(C)C)NC(=O)c1ccc(N(C)C)cc1 [Example 220, (3aR,6aS)-4-Dimethylamino-N-{(1S)-3-methyl-1-[4-((2S)-4-methyl-2-methylamino-pentanoyl)-6-oxo-hexahydro-pyrrolo[3,2-b]pyrrole-1-carbonyl]-butyl}-benzamide] | < 5 µM | < 5 µM
CC(C)C[C@H](NC(=O)c1ccc(N(C)C)cc1)C(=O)N1CC[C@@H]2[C@H]1C(=O)CN2C(=O)c1cccs1 [Example 95, (3aR,6aS)-4-Dimethylamino-N-{(1S)-3-methyl-1-[6-oxo-4-(thiophene-2-carbonyl)-hexahydro-pyrrolo[3,2-b]pyrrole-1-carbonyl]-butyl}-benzamide] | < 5 µM | < 5 µM
CC(=O)Nc1ccsc1C(=O)N1CC(=O)[C@@H]2[C@H]1CCN2C(=O)[C@H](CC(C)C)NC(=O)c1ccc(N(C)C)cc1 [Example 165, (3aR,6aS)-N-{(1S)-[4-(3-Acetylamino-thiophene-2-carbonyl)-6-oxo-hexahydro-pyrrolo[3,2-b]pyrrole-1-carbonyl]-3-methyl-butyl}-4-dimethylamino-benzamide] | < 5 µM | < 5 µM
CC(C)C[C@H](NC(=O)c1ccc(C(C)(C)C)cc1)C(=O)N1CC[C@@H]2[C@H]1C(=O)CN2C(=O)Nc1ccccc1 [Example 190, (3aS,6aR)-4-(2S-2-(4-tert-Butyl-benzoylamino)-4-methyl-pentanoyl]-3-oxo-hexahydro-pyrrolo[3,2-b]pyrrole-1-carboxylic acid phenylamide] | < 5 µM | < 5 µM
CC(C)C[C@H](NC(=O)c1ccc(N(C)C)cc1)C(=O)N1CC[C@@H]2[C@H]1C(=O)CN2C(=O)[C@@H](N)[C@H](C)O [Example 208, (3aR,6aS)-N-{(1S)-1-[4-((2S,3S)-2-Amino-3-hydroxy-butyryl)-6-oxo-hexahydro-pyrrolo[3,2-b]pyrrole-1-carbonyl]-3-methyl-butyl}-4-dimethylamino-benzamide] | < 5 µM | < 5 µM
CC(C)C[C@H](NC(=O)c1ccc(-c2ccccc2)s1)C(=O)N1CC[C@@H]2[C@H]1C(=O)CN2C(=O)c1ccccc1 [Example 44, (3aR,6aS)-5-Phenyl-thiophene-2-carboxylic acid [(1S)-1-(4-benzoyl-6-oxo-hexahydro-pyrrolo[3,2-b]pyrrole-1-carbonyl)-3-methyl-butyl]-amide] | < 5 µM | < 5 µM
CC(C)CCC(=O)N1CC(=O)[C@@H]2[C@H]1CCN2C(=O)[C@H](CC(C)C)NC(=O)c1ccc(N(C)C)cc1 [Example 105, (3aR,6aS)-4-Dimethylamino-N-{(1S)-3-methyl-1-[4-(4-methyl-pentanoyl)-6-oxo-hexahydro-pyrrolo[3,2-b]pyrrole-1-carbonyl]-butyl}-benzamide] | < 5 µM | < 5 µM
CC(C)C[C@H](NC(=O)c1ccc(N(C)C)cc1)C(=O)N1CC[C@@H]2[C@H]1C(=O)CN2C(=O)c1ccc([N+](=O)[O-])cc1 [Example 47, (3aR,6aS)-4-Dimethylamino-N-{(1S)-3-methyl-1-[4-(4-nitro-benzoyl)-6-oxo-hexahydro-pyrrolo[3,2-b]pyrrole-1-carbonyl]-butyl}-benzamide] | < 5 µM | < 5 µM
CC(C)C[C@H](NC(=O)c1ccc(C(C)(C)C)cc1)C(=O)N1CC[C@@H]2[C@H]1C(=O)CN2C(=O)c1ccc(-n2cncn2)cc1 [Example 26, (3aR,6aS)-4-tert-Butyl-N-{(1S)-3-methyl-1-[6-oxo-4-(4-[1,2,4]triazol-1-yl-benzoyl)-hexahydro-pyrrolo[3,2-b]pyrrole-1-carbonyl]-butyl}-benzamide] | < 5 µM | < 5 µM
CC(C)C[C@H](NC(=O)c1ccc(N(C)C)cc1)C(=O)N1CC[C@@H]2[C@H]1C(=O)CN2C(=O)[C@H](Cc1ccccc1)NC(=O)OCc1ccccc1 [Example 160, (3aS,6aR)-((1S)-1-Benzyl-2-{-[(2S)-2-(4-dimethylamino-benzoylamino)-4-methyl-pentanoyl]-3-oxo-hexahydro-pyrrolo[3,2-b]pyrrole-1-yl}-2-oxo-ethyl)-carbamic acid benzyl ester] | < 5 µM | < 5 µM
